Measured values taken from publication PMC12731536, “Sc(III) Complexes of Pyclen Derivative Ligands as Probes for Hypoxia: Synthesis, Chemical Characterization, ^44Sc‐Radiolabeling, and Preclinical Assessment” (Chemistry (Weinheim an Der Bergstrasse, Germany), 2025).
Like-named read-outs stand apart in the source and are kept apart here. Each block holds one compound with its values, some of them ahead of it.

Columns and labels:
[1] = pH‐potentiometric determination of ligand protonation constants; format: physicochemical; details: I = 0.15 M NaCl, T = 25 °C
Experimental: The equilibrium study of the PC2AM^nBu ligand has been started by determining the protonation constants in 0.15 M and 1.00 M NaCl ionic strength. (As the stability of the Sc(III) complex was determined in 1.00 M ionic strength, we had to perform the pH‐potentiometric titration of ligands using 1.00 M ionic strengths also.) The results of pH‐potentiometric measurement are shown in Table 1, where the corresponding data for 3,9‐PC2A,^[ [42] ^] PCTA ^[ [46] ^] and PC2AM‐NI ligands determined under identical conditions are also presented. Knowledge of the protonation constants defined by Eqn. 1 and 2 are essential for the calculation of the stability constants of the Sc(III) complexes:
(1) PC2AM^nBu^2−+nH^+⇌Hn(PC2AM^nBu)^−2+n (2) βn=HnPC2AM^nBu^−2+n/PC2AM^nBu^2−H^+^n
The protonation constants of the ligands, as well as the concentrations of the ligand stock solutions, were determined by pH‐potentiometric method using a Metrohm 785 DMP Titrino automatic titrator using a Metrohm 6.00234.100 combined glass electrode. The titrations were carried out in the pH range 1.75–11.80 and the pH electrode was calibrated by a two‐point calibration routine with the use of 0.05 M KH‐phthalate (pH = 4.005) and 0.01 M borax (pH = 9.177 buffers. The samples were stirred at 25 °C (±0.1 °C) and N2 gas bubbled into the system to ensure inert conditions and to eliminate the effect of the presence of CO2. For the calculation of [H^+] from the measured pH values, the method proposed by Irving et al. was applied.^[ [61] ^] For this, a 0.01 M HCl solution was titrated with the standardized NaOH solution in the presence of 0.15 M NaCl ionic strength at 25 °C. The differences between the measured (pHread) and calculated pH (‐log[H^+]) values were used to obtain the equilibrium H^+ concentration from the pHmeas values during the titrations. By fitting the resulting titration curves (pH – V (NaOH) data pairs) with the PSEQUAD program, the protonation constants of the ligands were determined.^[ [47] ^] The titration of the [Sc(PC2AM^nBu)]^+ with NaOH was performed with the same method by applying very similar conditions.

[2] = tested on: B16‐F10 tumor‐bearing C57BL/6 mice; experiment: In vivo PET studies (MiniPET‐II); details: n = 5
Description: The B16‐F10 mouse melanoma cell line (MC1‐R positive) was the kind gift of the Department of Immunology, Faculty of Medicine, University of Debrecen (Debrecen, Hungary). The cells were routinely cultivated according to the manufacturer's protocols using Dulbecco's Modified Eagle's medium (DMEM, Merck Life Science Ltd., Budapest, Hungary) supplemented with 1% (v/v) MEM Non‐Essential Amino Acid solution (Merck Life Science Ltd.), 1% MEM Vitamins solution (Merck Life Science Ltd.), 10% Fetal Bovine Serum (FBS, GIBCO Life Technologies, Billings, MT, USA), and 1% Antibiotic and Antimicotic solution (Merck Life Science Ltd.) at 37 °C in a humidified atmosphere containing 5% CO2. For tumor induction the cells were used at 85% confluence. Cell viability was determined by applying trypan blue exclusion assay. Those cells were used for subsequent experiments where the staining confirmed that more than 90% of them were viable.
(§1) All animal experiments confirmed to all applicable sections of the Hungarian Laws and the directions and regulations of the European Union, and the in vivo studies have been ethically approved by the Ethics Committee for Animal Experimentation of the University of Debrecen (license number: 16/2020/DEMÁB). C57BL/6 male mice (n = 32, older than 12 weeks, approx. 20 grams) obtained from Charles River Animalab Ltd. (Budapest, Hungary) were used for in vivo PET studies and biodistribution assays. To induce tumor models, 20 mice were subcutaneously transplanted with approximately 3x10^6 tumor cells (in 100 µL physiological saline) at the left shoulder area. Tumor growth was regularly monitored by using caliper measurements. During tumor generation inhalation anesthesia was induced using 3% isoflurane (Forane, AbbVie, Chicago, IL, USA), 0.4 L/min O2, and 0.8 L/min N2O.
Preclinical PET studies were performed on the MiniPET‐II scanner of the Department of Nuclear Medicine and Translational Imaging, Institute of Medical Imaging, Faculty of Medicine, University of Debrecen (Debrecen, Hungary). Fourteen days post tumor induction, tumor‐bearing mice (n = 20) were anesthetized (see above) and tail vein injected with approximately 5–7 MBq of [^44Sc][Sc(PC2AM‐NI)]^+ or [^44Sc][Sc(PC2A‐Ph‐NI)]^+. After a 90 ‐ and a 240‐minutes awake incubation period, the mice were re‐anesthetized and 20‐minutes static PET scans were taken. To quantify radiopharmaceutical uptake, followed by image reconstruction (3D ordered‐subsets expectation‐maximization algorithm (3D‐OSEM)), volumes of interest (VOIs) were manually outlined on the tumors and on the hindlimb muscle tissue as a reference region. Using a dedicated imaging analysis software: BrainCAD image analysis software (version: 1.12‐bulid3), mean standardized uptake values (SUVmean) were determined with the following equation: SUV = [VOI activity (Bq/mL)]/[injected activity (Bq)/animal weight (g)]. To assess image contrast, tumor‐to‐off‐target ratios (tumor‐to‐muscle ratio/T/M) were also calculated.

[3] = tested on: healthy control and B16‐F10 melanoma cell‐bearing mice; experiment: Ex vivo biodistribution studies; format: in vivo; details: for B16‐F10 tumor uptake: 14 days after cancer cell inoculation, n = 5 tumor‐bearing mice
Description: as §1
To evaluate the organ distribution of the novel ^44Sc‐labeled radiotracers, ex vivo biodistribution experiments were additionally performed. Healthy control and tumor‐bearing mice were administered with approximately 5–7 MBq of [^44Sc][Sc(PC2AM‐NI)]^+ or [^44Sc][Sc(PC2A‐Ph‐NI)]^+ and at 90 ‐ and 240‐minutes post injection, all of them were put to death. Organs and tissues of interest were collected, weighed wet, and γ‐counted (Perkin‐Elmer Packard 406 Cobra, Waltham, MA, USA). After decay correction, the radioactivity of each tissue and organ was calculated as %ID/g.

[4] = I = 0.15 M NaCl, T = 25 °C; cited from earlier work

log K 1 ^H [1]: 8.60(3) | log K 2 ^H [1]: 7.39(3) | log K 3 ^H [1]: 2.28(3) | log K 4 ^H [1]: 1.58(3) | log β 2 ^H [1]: 15.99
SMILES: O=C(O)CN1CCN(CC(=O)NCCCCCCn2ccnc2[N+](=O)[O-])CCN(CC(=O)O)Cc2cccc(n2)C1 [PC2AM‐NI]

muscle SUVmean ([2]; 90 minutes post injection): 0.02 ± 0.01 | muscle SUVmean ([2]; 240 minutes post injection): 0.01 ± 0.01 | Blood uptake ([3]; 90 minutes post injection): 0.09 ± 0.02 %ID/g | Bone uptake ([3]; 90 minutes post injection): 0.02 ± 0.00 %ID/g | Brain uptake ([3]; 90 minutes post injection): 0.01 ± 0.01 %ID/g | Fat uptake ([3]; 90 minutes post injection): 0.05 ± 0.02 %ID/g | Heart uptake ([3]; 90 minutes post injection): 0.04 ± 0.01 %ID/g | Kidney uptake ([3]; 90 minutes post injection): 0.83 ± 0.29 %ID/g | Liver uptake ([3]; 90 minutes post injection): 1.55 ± 1.66 %ID/g | Lung uptake ([3]; 90 minutes post injection): 0.10 ± 0.02 %ID/g | Muscle uptake ([3]; 90 minutes post injection): 0.02 ± 0.00 %ID/g | Pancreas uptake ([3]; 90 minutes post injection): 0.04 ± 0.02 %ID/g | Spleen uptake ([3]; 90 minutes post injection): 0.07 ± 0.02 %ID/g | Stomach uptake ([3]; 90 minutes post injection): 0.09 ± 0.02 %ID/g | Urine activity ([3]; 90 minutes post injection): 77.19 ± 37.26 %ID/g | gall bladder uptake ([3]; 90 minutes post injection): 42.46 ± 33.31 %ID/g | large intestines uptake ([3]; 90 minutes post injection): 0.10 ± 0.07 %ID/g | salivary gland uptake ([3]; 90 minutes post injection): 0.03 ± 0.00 %ID/g | small intestines uptake ([3]; 90 minutes post injection): 0.92 ± 0.33 %ID/g | B16‐F10 tumor uptake ([3]; 90 minutes post injection): 0.27 ± 0.07 %ID/g | Blood uptake ([3]; 240 minutes post injection): 0.02 ± 0.01 %ID/g | Bone uptake ([3]; 240 minutes post injection): 0.01 ± 0.00 %ID/g | Brain uptake ([3]; 240 minutes post injection): 0.01 ± 0.00 %ID/g | Fat uptake ([3]; 240 minutes post injection): 0.01 ± 0.00 %ID/g | Heart uptake ([3]; 240 minutes post injection): 0.01 ± 0.00 %ID/g | Kidney uptake ([3]; 240 minutes post injection): 0.60 ± 0.37 %ID/g | Liver uptake ([3]; 240 minutes post injection): 0.90 ± 1.01 %ID/g | Lung uptake ([3]; 240 minutes post injection): 0.03 ± 0.01 %ID/g | Pancreas uptake ([3]; 240 minutes post injection): 0.01 ± 0.00 %ID/g | Spleen uptake ([3]; 240 minutes post injection): 0.03 ± 0.02 %ID/g | Stomach uptake ([3]; 240 minutes post injection): 0.04 ± 0.03 %ID/g | Urine activity ([3]; 240 minutes post injection): 5.44 ± 1.23 %ID/g | gall bladder uptake ([3]; 240 minutes post injection): 15.82 ± 13.89 %ID/g | large intestines uptake ([3]; 240 minutes post injection): 0.12 ± 0.12 %ID/g | salivary gland uptake ([3]; 240 minutes post injection): 0.01 ± 0.01 %ID/g | small intestines uptake ([3]; 240 minutes post injection): 0.20 ± 0.10 %ID/g | B16‐F10 tumor uptake ([3]; 240 minutes post injection): 0.17 ± 0.07 %ID/g
SMILES: O=C([O-])CN1CCN(CC(=O)NCCCCCCn2ccnc2[N+](=O)[O-])CCN(CC(=O)[O-])Cc2cccc(n2)C1.[44Sc+3] [[^44Sc][Sc(PC2AM‐NI)]^+]
B16‐F10 SUVmean ([2]; 90 minutes post injection): 0.08 ± 0.02 | T/M ratio (tumor‐to‐muscle) ([2]; 90 minutes post injection): 4.04 ± 0.02 | B16‐F10 SUVmean ([2]; 240 minutes post injection): 0.04 ± 0.02 | T/M ratio (tumor‐to‐muscle) ([2]; 240 minutes post injection): 4.02 ± 0.02

SMILES: O=C(O)CN1CCNCCN(CC(=O)O)Cc2cccc(n2)C1 [3,9‐PC2A]
log K 1 ^H [4]: 12.25 | log K 2 ^H [4]: 5.97 | log K 3 ^H [4]: 3.47 | log K 4 ^H [4]: 1.99 | log β 2 ^H [4]: 18.22
